From patent publication US20220016099A1, “BENZIMIDAZOLE OR BENZOXAZOLE DERIVATIVES FOR PREVENTING AND TREATING CENTRAL NERVOUS SYSTEM DISEASE, DIABETES, AND COMPLICATIONS THEREOF” (TRINUERO, priority 2018, published 2022) come the findings set out here.

SMILES strings stand for the structures. A value given as a limit tells only on which side of the number the result lay.

The subject of the first assay is Nrf2. As to the kind of experiment: Nrf2 activity by A549-ARE luciferase assay. Format: cell-based. The conditions noted are these: A549-ARE cell line, 10 μM of each compound in DMSO; Nrf2 activity (%) of compound relative to DMSO using luciferase assay; read-out: Nrf2 activity. The method, then:
Example 1: Method for Measuring Nrf2 Activity of Benzimidazole or Benzoxazole Derivatives Using A549-ARE Luciferase Assay
An assay for Nrf2 activity was performed by modification of the method reported in Ilse M. Beck et al., (2013), European Journal of Pharmacology 715. 1-9.
Specifically, A549-ARE cell line was dispensed into a 96-well plate, and then subjected to treatment with a solution obtained by dissolving 10 μM of each compound in Table 2 in dimethyl sulfoxide (DMSO). On the other hand, Compounds 1 and 13 as shown in Table 2 were obtained from Sigma-Aldrich (US); Compounds 2, 5, 8, 9 12, 15, 18 to 20, 23, 25, 30, and 32 were obtained from Tokyo Chemical Industry Co., Ltd. (JP); Compound 3 was obtained from Labseeker (CN); Compound 4 was obtained from BOC Science (US); Compounds 6 and 7 were obtained from Cambridge (US); Compounds 10, 11, 16, 17, 21, and 22 were obtained from Toronto Research Chemicals (CA); Compound 14 was obtained from Selleckchem (US); Compounds 24, 26, 27, and 31 were obtained from BLD Pharm (CN); Compounds 28 and 33 were obtained from Mcule (US); Compound 29 was obtained from Chemshuttle (US); and Compound 34 was obtained from Alinda (RU).
Thereafter, the 96-well plate was treated with 30 μl of luciferase lysis buffer (90.8 mM K2HPO4, 9.2 mM KH2PO4, 0.1% Triton X-100), and then incubated for 30 minutes or longer so that cell lysis proceeded. The incubated cell lysate was transferred to another 96-well plate (white plate), and then each well was treated with 100 μl of luciferase buffer mixture (20 mM Tricine, 1.07 mM [(MgCO3)4Mg(OH)2.5H2O], 2.67 mM [MgSO4.7H2O], 0.1 mM EDTA, 33.3 mM DTT, 270 μM coenzyme A [CoA], 500 μM D-luciferin, 530 μM ATP). Immediately after the treatment, […] was performed to check Nrf2 activity.
Consider `COc1ccc2[nH]c([S+]([O-])Cc3ncc(C)c(OC)c3C)nc2c1` (stereo not drawn) [Compound 1, omeprazole, reference compound], for which the activity at 10 µM lay in the range of 0 to 30%.

As to `COc1ccc2[nH]c(SCc3ncc(C)c(OC)c3C)nc2c1` [Compound 2, omeprazole sulfide], the activity at 10 µM lay in the range of 0 to 30%.

As to `COc1ccc2[nH]c(S(=O)(=O)Cc3ncc(C)c(OC)c3C)nc2c1` [Compound 3, omeprazole sulfone], the activity at 10 µM lay in the range of 0 to 30%.

For the compound `COc1ccc2[nH]c([S+]([O-])Cc3c(C)c(OC)c(C)c[n+]3[O-])nc2c1` (stereo not drawn) [Compound 4, omeprazole N-oxide], the activity at 10 µM was in the range of 0 to 30%.

For `COc1ccc2[nH]c(S)nc2c1` [Compound 5, 5-methoxy-2-benzimidazolethiol], the activity at 10 µM was in the range of 30 to 70%.

On to `COc1ccc2c(c1)nc(S)n2C` [Compound 6, 5-methoxy-1-methyl-1H-benzimidazole-2-thiol], for which the activity at 10 µM fell in the range of 30 to 70%.

`COc1ccc2[nH]c(SC)nc2c1` [Compound 7, 5-methoxy-2-(methylthio)-1H-benzimidazole]: the activity at 10 µM lay in the range of 0 to 30%.

Consider `Cc1c(OCC(F)(F)F)ccnc1C[S+]([O-])c1nc2ccccc2[nH]1` (stereo not drawn) [Compound 8, lansoprazole, reference compound], for which the activity at 10 µM is more than 100%.

Turning to `Cc1c(OCC(F)(F)F)ccnc1CSc1nc2ccccc2[nH]1` [Compound 9, lansoprazole sulfide], the activity at 10 µM lay in the range of 70 to 100%.

Regarding `Cc1c(OCC(F)(F)F)ccnc1CS(=O)(=O)c1nc2ccccc2[nH]1` [Compound 10, lansoprazole sulfone], the activity at 10 µM is 0 to 30%.

Turning to `Cc1c(OCC(F)(F)F)cc[n+]([O-])c1C[S+]([O-])c1nc2ccccc2[nH]1` (stereo not drawn) [Compound 11, lansoprazole N-oxide], the activity at 10 µM lay in the range of 70 to 100%.

In the case of `Cn1c(S)nc2ccccc21` [Compound 13, 1-methyl-1H-benzimidazole-2-thiol], the activity at 10 µM lay within 0 to 30%.

As to `COc1ccnc(C[S+]([O-])c2nc3cc(OC(F)F)ccc3[nH]2)c1OC` (stereo not drawn) [Compound 14, pantoprazole, reference compound], the activity at 10 µM lay in the range of 70 to 100%.

Take `COc1ccnc(CSc2nc3cc(OC(F)F)ccc3[nH]2)c1OC` [Compound 15, pantoprazole sulfide]: the activity at 10 µM was 0 to 30%.

Regarding `COc1ccnc(CS(=O)(=O)c2nc3cc(OC(F)F)ccc3[nH]2)c1OC` [Compound 16, pantoprazole sulfone], the activity at 10 µM was in the range of 0 to 30%.

In the case of `COc1cc[n+]([O-])c(C[S+]([O-])c2nc3cc(OC(F)F)ccc3[nH]2)c1OC` (stereo not drawn) [Compound 17, pantoprazole N-oxide], the activity at 10 µM lay in the range of 70 to 100%.

As to `FC(F)Oc1ccc2nc(S)[nH]c2c1` [Compound 18, 5-difluoromethoxy-2-mercaptobenzimidazole], the activity at 10 µM lay within 0 to 30%.

Turning to `COCCCOc1ccnc(C[S+]([O-])c2nc3ccccc3[nH]2)c1C` (stereo not drawn) [Compound 19, rabeprazole, reference compound], the activity at 10 µM is more than 100%.

For `COCCCOc1ccnc(CSc2nc3ccccc3[nH]2)c1C` [Compound 20, rabeprazole sulfide], the activity at 10 µM was more than 100%.

As to `COCCCOc1ccnc(CS(=O)(=O)c2nc3ccccc3[nH]2)c1C` [Compound 21, rabeprazole sulfone], the activity at 10 µM lay within 0 to 30%.

As for `COCCCOc1cc[n+]([O-])c(C[S+]([O-])c2nc3ccccc3[nH]2)c1C` (stereo not drawn) [Compound 22, rabeprazole N-oxide], the activity at 10 µM fell in the range of 70 to 100%.

As to `Cc1cccc2[nH]c(=S)[nH]c12` [Compound 24, 4-methyl-1H-benzimidazole-2-thiol], the activity at 10 µM fell in the range of 0 to 30%.

In the case of `O=S(=O)(O)c1ccc2[nH]c(=S)[nH]c2c1` [Compound 25, 2-sulfanyl-1H-benzimidazole-5-sulfonic acid], the activity at 10 µM was in the range of 0 to 30%.

For the compound `O=c1[nH]c2ccc(Cl)cc2[nH]1` [Compound 26, 5-chloro-1,3-dihydrobenzimidazol-2-one], the activity at 10 µM was 0 to 30%.

Regarding `O=C1Cc2cc(O)ccc2N1` [Compound 27, 5-hydroxyindolin-2-one], the activity at 10 µM is 0 to 30%.

Turning to `O=c1[nH]c2c(Cl)c(Cl)c(Cl)cc2o1` [Compound 28, 4,5,6-trichloro-3H-a,3-benzoxazol-2-one], the activity at 10 µM lay in the range of 0 to 30%.

In the case of `COc1ccc2[nH]c(=O)oc2c1` [Compound 29, 6-methoxybenzo[d]oxazol-2(3H)-one], the activity at 10 µM is 30 to 70%.

For the compound `O=[N+]([O-])c1ccc2[nH]c(=S)[nH]c2c1` [Compound 30, 2-mercapto-5-nitrobenzimidazole], the activity at 10 µM lay within 0 to 30%.

In the case of `O=c1[nH]c2cc(Cl)c(O)cc2o1` [Compound 31, 6-hydroxychlorzoxazone], the activity at 10 µM is 0 to 30%.

As for `S=c1[nH]c2ccc(Cl)cc2[nH]1` [Compound 32, 5-chloro-2-mercaptobenzimidazole], the activity at 10 µM lay in the range of 70 to 100%.

As to `S=c1[nH]c2cc3ccccc3cc2[nH]1` [Compound 33, 1,3-dihydrobenzo[f]benzimidazole-2-thione], the activity at 10 µM lay in the range of 0 to 30%.

As for `COc1cc2nc(S)[nH]c2cc1OC` [Compound 34, 5,6-dimethoxy-1H-benzo[d]imidazol-2-thiol], the activity at 10 µM was in the range of 0 to 30%.

The assay is the same for the next values; noted with them: read-out: Nrf2 activity.
As for `Sc1nc2ccccc2[nH]1` [Compound 12, 2-mercaptobenzimidazole], the activity at 10 µM lay within 0 to 30%.
